The source of these data is patent US20230203081A1, “LINCOSAMIDE ANTIBIOTICS AND USES THEREOF” (President and Fellows of Harvard College, priority 2020, published 2023).

For data set [1], the system named is S. aureus MMX USA 300; MRSA. As to the kind of experiment: MIC (broth microdilution or agar dilution, CLSI). Format: cell-based. Particulars: Staphylococcus aureus. In a few lines: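 CLSI MIC, broth microdilution or agar dilution; compound 128-0.06 μg/mL, 2.5% DMSO final; triplicate. Anaerobes (e.g. clostridia) and streptococci run by specialized procedures. Other strains: overnight 35° C on blood agar, CaMHB, 0.5 McFarland, inoculum 5×10^5 CFU/mL.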
Background: Broth dilution looks for growth in wells or tubes with falling amounts of substance.

Data set [2] can be described thus: Mouse pharmacokinetics i.v. and p.o. Details: species or system mice. To be noted: in vivo, 60 mg/kg.
For a further data set, the system named is A. baumanii ATCC 19606. As to the kind of experiment: Murine neutropenic thigh infection model. In kind it is in vivo, mice. To be noted: neutropenic mouse thigh, A. baumanii ATCC 19606 (FIG. 4C).
The nature of data set [3]: Microsomal intrinsic clearance (Clint,mic), species h. Details: unit not given here. In kind it is in vitro ADME, human.
Another data set concerns E. coli MP-9 ΔTolC. As to the kind of experiment: MIC (broth microdilution or agar dilution, CLSI). In kind it is cell-based. Particulars: Escherichia coli. A digest of the protocol:
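Per CLSI, MICs by broth microdilution or agar dilution; strains other than streptococci and anaerobes were sub-cultured overnight at 35° C on blood agar, with a final broth inoculum of 5×10^5 CFU/mL.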

The test system of the next data set is HepG2. As to the kind of experiment: Mitochondrial ToxGlo assay. Format: cell-based, human. As to the method:
Mammalian cell experiments: All compounds were dissolved in sterile DMSO to a stock concentration of 20 μM and aliquoted prior to freezing at −20° C. Aliquots were limited to a maximum of 3 freeze-thaw cycles. A549 (human pulmonary carcinoma; […]) cells were cultured in Dulbecco's Modified Eagle Medium (DMEM) supplemented with 10% fetal bovine serum. K562 (human chronic myelogenous leukemia; […]) cells were cultured in Iscove's Modification of DMEM (IMDM) media supplemented with 10% fetal bovine serum. HCT116 (human colorectal carcinoma; […]) cells were cultured in McCoy's 5a (Iwakata & Grace Modification) media supplemented with 10% fetal bovine serum. HepG2 (human hepatocellular carcinoma; […]) cells were cultured in Eagle's Minimum Essential Medium (EMEM) supplemented with 10% fetal bovine serum. All cell cultures were maintained in a 5% CO2 incubator at 37° C.
Mitochondrial toxicity assays were conducted using the Promega Mitochondrial ToxGlo assay, pursuant to the manufacturer's protocol.

A further data set concerns S. aureus (MRSA). As to the kind of experiment: Murine neutropenic thigh infection model. To be noted: neutropenic mouse thigh, 24 h after a single intraperitoneal dose of 60 mg/kg.
The nature of data set [4]: Plasma protein binding, species h. Format: in vitro ADME. Particulars: human.
The subject of the next data set is E. faecalis ATCC 29212. In words: Spontaneous resistance in standard bacterial strains. Format: cell-based. To be noted: agar with 4×, 8×, 16× MIC, 3 days. As to the method: (§1) […]. Bacterial strains (S. aureus ATCC 29213, S. aureus MRSA, and E. faecalis ATCC 29212) were suspended in normal saline and optical density was adjusted to 1.50 at 600 nm. Bacterial counts were measured by serial dilution and plating. Bacterial inoculum (250 μL) was transferred to the media plate and was spread evenly. Plates were incubated at 37° C. for 3 days, and were observed daily for resistant colonies to emerge.

In data set [5] the test system is S. aureus ATCC 29213, S. aureus MRSA. The description is as above. In kind it is cell-based. To be noted: agar with 4×, 8×, 16× MIC, 3 days. As to the method:
as §1

A further data set has as its system human erythrocytes. In words: Hemolysis of human erythrocytes relative to Triton X-100. Format: cell-based. Particulars: result in words.
The test system of the next data set is S. pyogenes ATCC 19615. As to the kind of experiment: Murine neutropenic thigh infection model. Particulars: neutropenic mouse thigh, S. pyogenes ATCC 19615, 24 h after a single intraperitoneal dose of 60 mg/kg.
Data set [6] has as its system susceptible S. aureus and E. faecium strains. In words: Post-antibiotic effect (PAE) and post-antibiotic sub-MIC effect (PA-SME). Format: cell-based. To be noted: following brief exposure; result in words. As to the method: Post-antibiotic and post-antibiotic sub-MIC effect: Measurements of PAE and PA-SME durations were performed according to the methods described by Odenholt-Tornqvist and co-workers. […] A flask containing the unexposed bacterial strain was left as untreated control. Post-exposure, 100 μL of bacterial culture was diluted in 900 μL of sterile CaMHB; 100 μL of this diluted sample was immediately diluted further in 19.9 mL of sterile CaMHB (1:2,000 final dilution). […] Flasks were incubated at 37° C. in a shaker incubator (110 rpm). Samples (100 μL from each flask per time point) were collected at 0, 1, 3, 6, and 24 h from each flask and were serially diluted. From each dilution, 100 μL and 10 μL from each dilution were plated in duplicate on TSA plates. Plates were incubated overnight at 35° C. to determine the bacterial counts (limit of detection=20 CFU/plate or 2×10^2 CFU/mL). These counts were plotted against time with linear interpolation between time points to obtain the growth-kinetic curves. PAE and PA-SME were determined from these curves using the formulae: […]
where T is the time required for bacteria previously exposed to antibiotic to multiply 1 log10 above counts immediately following dilution, and C is the corresponding time required for untreated culture to do the same; and […]

The subject of data set [7] is methicillin-resistant Staphylococcus aureus (MRSA). As to the kind of experiment: MIC, panel of clinically derived MRSA strains. In kind it is cell-based. Particulars: result in words. As to the method: Minimum inhibitory concentrations (MICs) were determined by broth microdilution method or agar dilution method following the Clinical and Laboratory Standards Institute guidelines. Standard bacterial strains were obtained from American Type Culture Collection (ATCC). Other bacterial strains were obtained from hospitals and commercial sources, so noted in Table 11. Before the start of the MIC experiment, standard and test compound stock solutions were prepared in dimethyl sulfoxide (DMSO, Aldrich D2650) at a stock concentration of 5,120 μg/mL. The compound concentration range typically employed for each experiment was 128-0.06 μg/mL (2.5% final DMSO concentration). Clindamycin was used as a comparator in all experiments and each experiment was performed in triplicate. Specialized procedures were employed for streptococcal and anaerobic strains. All other bacterial strains were sub-cultured on blood agar plates (tryptic soy agar with 5% sheep blood, Hardy Diagnostics) and incubated overnight at 35° C. Organisms were suspended in cation-adjusted Mueller-Hinton broth (CaMHB, BD 212322) and optical density was adjusted to 0.5 McFarland standard. Suspensions were further diluted to obtain a final inoculum of 5×10^5 CFU/mL for broth microdilution experiments.

Each structure is given as a SMILES string. Converted amounts (≈) assume the structure as drawn. “Also recorded” adds a separate entry of the source.

Experimental for S. aureus (MRSA): (§2) Animal studies: Animal experiments were performed at the Biology Research Infrastructure Laboratory of Harvard University following IACUC-approved protocols. Animals were maintained in accordance with National Research Council guidelines. Pathogen-free, 5-6-week-old, female CD-1 mice weighing 22-26 grams were obtained from Charles River Laboratories, Inc. (Kingston, N.Y.). Animals were acclimated for a minimum of three days prior to start of the studies. Mice were caged as a group of four per cage, were housed at 21-23° C. with humidity ranging from 30-70%, were exposed to 12-hour light and dark cycles, and were supplied with food and water ad libitum.
(§3) Mouse thigh infection studies: Mice were rendered neutropenic by administering cyclophosphamide intraperitoneally, 150 mg/kg four days prior, and 100 mg/kg one day prior to infection. Bacterial strains were cultured overnight on blood agar plates at 35° C. in 5% CO2. […] Homogenates were serially diluted and plated on blood agar plates (each sample was plated in duplicate), and bacterial counts (log10 CFU/thigh) were determined after incubating the plates overnight at 35° C. in 5% CO2. Each experiment was repeated twice, and mean values were calculated (n=4 mice per time point).
Experimental for S. pyogenes ATCC 19615: as §2, §3

Broadly, the MIC is the least concentration at which growth counts as inhibited. The compound `CCC[C@@H]1C[C@@H](C(=O)N[C@@H]([C@H]2O[C@H](SC)[C@H](O)[C@@H](O)[C@H]2O)[C@H](C)Cl)N(C)C1` [Clindamycin, clindamycin, reference compound] registered an MIC in data set [1] of 0.25 µg/mL (≈ 0.588 µM).
What is called AUC is the area under the concentration-time curve, a measure of exposure. A word on the Cmax: it is the highest concentration seen after dosing. The MRT is a mean duration of stay, worked out from the concentration-time curve. In general, bioavailability refers to the share of a dose that reaches the circulation, judged against a reference dose that is usually intravenous. Broadly, the fraction unbound is the share of the substance not bound to proteins or other matrix. Take `CSC1O[C@H]([C@H](NC(=O)[C@H]2NC[C@@H]3C[C@H](CC(C)C)CCO[C@H]32)[C@H](C)Cl)C(O)[C@@H](O)[C@H]1O` (stereo partly shown) [FSA-513018b]: in data set [2] (iv), the AUC was determined as 6800 ± 1300 ng·h/mL, the Cmax stood at 7900 ± 3000 ng/mL, the MRT amounted to 1.2 h and the clearance was 148 mL/min/kg. For the same compound, the Vd in [2] (iv, read-out: Vss) is 12.5 ± 0.4 L/kg. In data set [2] (po), this compound showed an AUC of 1600 ± 400 ng·h/mL, a Cmax of 1600 ± 700 ng/mL and a bioavailability of 24%. Besides, the “efficacy in thigh infection model” value in the data set with A. baumanii ATCC 19606 is recorded as “effective”. In addition, the “Clint,mic” value in [3] was 34. The MIC with E. coli MP-9 ΔTolC is 0.5 µg/mL (≈ 1.01 µM). Besides, the “effect on membrane integrity” value in the data set on HepG2 (HepG2, Mitochondrial ToxGlo) is given as “no effect”. Further, the “effect on mitochondrial function” value in the data set with HepG2 (HepG2, Mitochondrial ToxGlo (ATP production)) is “no effect”. Also, in the data set with S. aureus (MRSA), the “reduction in bacterial burden vs clindamycin- and vehicle-treated controls” value was “statistically significant reductions”. The compound also gave a fraction unbound in [4] of 0.08. Further, the spontaneous resistance entry with E. faecalis ATCC 29212 is reported as “not observed; also recorded: No colonies were noted on any plate”. In [5], the spontaneous resistance result was “not observed; also recorded: No colonies were noted on any plate”. Besides, the hemolysis result in the data set with human erythrocytes is given as “non-hemolytic”. Further, in the data set on S. pyogenes ATCC 19615, the “reduction in bacterial burden vs clindamycin- and vehicle-treated controls” value is given as “statistically significant reductions”. Moreover, the “post-antibiotic effect on bacterial growth” value in [6] was “prolonged effects on bacterial growth”. In addition, the “activity against a panel of clinically derived MRSA strains” value in [7] is “uniformly high activity”.
